# Measured values as given in patent US20080176909A1, “Methods for prevention and treatment of arteriosclerosis, hypertension and restenosis” (DAIICHI SANKYO COMPANY, LIMITED, priority 2003, published 2008).
# Experiments:
# [1] = test system: apolipoprotein E (ApoE) knock out mice; experiment: Antihypertensive effects, systolic blood pressure on high fatty diet; format: in vivo; details: for Systolic blood pressures: 3 mg/kg of each agent oral for 24 weeks, measured 21 to 24 hours after administration in the 23rd week, mean±S.E.; for hypotensive effects: 3 mg/kg of each agent, Dunnett's multiple comparison test
# Procedure: Male apolipoprotein E (ApoE) knock out mice aged 12 weeks were divided into 4 groups (15 mice per group) as following: control group (0.5% carboxymethylcellulose (CMC) solution administered group), olmesartan medoxomil (3 mg/kg) administered group, azelnidipine (3 mg/kg) administered group, and olmesartan medoxomil (3 mg/kg) plus azelnidipine (3 mg/kg) administered group. Either test substance or vehicle (0.5% CMC solution) was orally administered to animals for 24 successive weeks. A high fatty diet (containing 0.15% cholesterol and 15% unsalted butter) was given to all mice in all groups following the start of test agent administration (12 weeks of age). The systolic blood pressure of all mice was measured by a non-preheating type blood pressure monitor (BP MONITOR FOR RATS & MICE, Model MK-2000, Muromachi Kikai Co., Ltd.) at 21 to 24 hours after drug administration in the 23rd week. The results are shown in Table 3 (values in the table indicate mean±S.E.).
# [2] = test system: cultured rat vascular smooth muscle cells; experiment: DNA synthesis ([3H]thymidine incorporation) following stimulation by angiotensin II; format: cell-based; details: for DNA synthesis of cultured rat vascular smooth muscle cells: low doses, alone or co-administered
# Excerpt: (§1) (3) Olmesartan, an AT1 receptor blocker, was intraperitoneally injected into wild-type mice by an osmotic minipump, and the dose-dependency of olmesartan was investigated as described in (2). Oral administration of azelnidipine to the wild-type mice was started after cuff placement, and dose-dependency of azelnidipine was investigated as described in (2). (4) Both olmesartan and azelnidipine were simultaneously administered to wild-type mice, and the effects of co-administration of olmesartan and azelnidipine were compared with those of administration of either olmesartan or azelnidipine alone as described in (2). Effects of olmesartan and azelnidipine were investigated at effective doses of either olmesartan or azelnidipine alone and at insufficient doses to elicit significant effects by either olmesartan or azelnidipine alone, so as to determine synergistic effects of these two agents. (5) By using cultured rat vascular smooth muscle cells, the effects of co-treatment of olmesartan and azelnidipine on facilitation of DNA synthesis following stimulation by angiotensin II (determined by incorporation of [^3H]thymidine) were investigated.
# [3] = test system: cuff-induced vascular damage model of wild-type mice (femoral artery); experiment: Cuff-induced vascular injury model: DNA synthesis (BrdU index) and neointima formation; format: in vivo; details: for effects on blood pressure: azelnidipine 0.1 to 1.0 mg/kg/day, olmesartan 0.5 to 3.0 mg/kg/day
# Procedure: C57BL/6 mice aged 10 weeks were used. In a part of this study, AT1a receptor gene knock out (AT1aKO) mice were also used. Inflammatory vascular damage was induced in mice by loosely placing a polyethylene tube which was cut longitudinally to open the tube, around the femoral artery of mice. In the damaged artery, the following observations were determined. The usefulness of this model of vascular damage to analyze vascular remodeling has been previously reported (Physiol. Genomics., 2, pp. 13-30, 2000; Circulation, 104, pp. 2716-2721, 2001; Circulation, 106, pp. 847-853, 2002).
# A paraffin-embedded section of the damaged artery was prepared 14 days after cuff placement, Elastica van Gieson staining was carried out, and the cross-sectional area of the neointima and tunica media of the blood vessels was determined by image analysis software. For quantification of DNA synthesis, bromodeoxyuridine (BrdU) was injected into the mice 7 days after cuff placement and BrdU index calculated from incorporation into the nuclei of the cells was calculated.
# as §1
# [4] = low doses: 0.1 mg/kg/day azelnidipine, 0.5 mg/kg/day olmesartan, alone or at the same time
SMILES,Systolic blood pressures [1],hypotensive effects [1],"facilitation of DNA synthesis following stimulation by angiotensin II ([2]; concentration dependence, [3H]thymidine incorporation)",DNA synthesis of cultured rat vascular smooth muscle cells [2],effects on blood pressure [3],"increase in DNA synthesis of vascular smooth muscle cells (BrdU index) ([3]; dose range: azelnidipine 0.1 to 1.0 mg/kg/day oral, olmesartan 0.5 to 3.0 mg/kg/day intraperitoneal osmotic minipump, 7 days after cuff placement)","potentiation of neointima formation in the blood vessels ([3]; dose range: azelnidipine 0.1 to 1.0 mg/kg/day oral, olmesartan 0.5 to 3.0 mg/kg/day intraperitoneal osmotic minipump, 14 days after cuff placement)","increase in DNA synthesis of vascular smooth muscle cells (BrdU index) [3, 4]","potentiation of neointima formation in the blood vessels [3, 4]"
"CC1=C(C(=O)OC(C)C)C(c2cccc([N+](=O)[O-])c2)C(C(=O)OC2CN(C(c3ccccc3)c3ccccc3)C2)=C(N)N1 (racemic) [Azelnidipine, (±)-2-amino-1,4-dihydro-6-methyl-4-(3-nitrophenyl)-3,5-pyridine-dicarboxylate-3-(1-diphenylmethylazetidin-3-yl)ester 5-isopropylester]",127 ± 4 mmHg,did not elicit any significant effects,suppressed by administration of azelnidipine in a concentration-dependent manner,insufficient to elicit any effects alone,without any effects on blood pressure,inhibited by azelnidipine in a dose-dependent manner,inhibited by azelnidipine in a dose-dependent manner,did not elicit any significant effects,did not elicit any significant effects
"CCCc1nc(C(C)(C)O)c(C(=O)OCc2oc(=O)oc2C)n1Cc1ccc(-c2ccccc2-c2nnn[nH]2)cc1 [Olmesartan medoxomil, (5-methyl-2-oxo-1,3-dioxolen-4-yl)methyl 4-(1-hydroxy-1-methylethyl)-2-propyl-1-[[2′-(1H-tetrazol-5-yl)biphenyl-4-yl]methyl]imidazol-5-carboxylate]",121 ± 4 mmHg,did not elicit any significant effects,,insufficient to elicit any effects alone,without any effects on blood pressure,,,did not elicit any significant effects,did not elicit any significant effects
